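1) Cells in 96-well plates. 2) Compound, 48 h, 5 concentrations. 3) Linear interpolation between surrounding doses. 4) Unreached endpoint = highest concentration. The concentration for 50% growth inhibition is given as GI50.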 Calls of active or inactive are those of the source. Rule as the data show it: active = GI50 up to about 1.1 µM and inactive = higher.
Tests used:
Assay in all cases: inhibition of tumour cell growth, NCI panel, 48 h
[1] = test system: OVCAR-5
[2] = test system: LOX IMVI
[3] = test system: RPMI-8226
[4] = test system: HOP-92
[5] = test system: NCI-H226
[6] = test system: T47D
[7] = test system: IGROV-1
[8] = test system: SNB-75
[9] = test system: SK-MEL-28
[10] = test system: HCT-15
[11] = test system: NCI-H23
[12] = test system: SK-MEL-2
[13] = test system: SF-539
[14] = test system: NCI/ADR-RES
[15] = test system: NCI-H522
[16] = test system: M14
[17] = test system: HCT-116
[18] = test system: HT-29

With `CCCCCCCCCCCCCCCCNc1nc(=O)n(C2CC(O)C(COP(=O)(O)OC3CC(n4cc(F)c(=O)[nH]c4=O)OC3CO)O2)cc1F` (stereo not drawn) the GI50 [1] was 29.7 µM (inactive), the GI50 [2] was 0.0637 µM (active) and the GI50 [3] was 0.0822 µM (active). For the same molecule, the GI50 [4] was 4.38 µM (inactive), the GI50 [5] was 9.51 µM (inactive) and the GI50 [6] was 6.68 µM (inactive). The GI50 [7] was 1.95 µM (inactive), the GI50 [8] was 4.98 µM (inactive) and the GI50 [9] was 14.2 µM (inactive). For the same molecule, the GI50 [10] was 3.18 µM, the GI50 [11] was 0.44 µM (active) and the GI50 [12] was 30.1 µM (inactive). For the same molecule, the GI50 [13] was < 0.0108 µM (active), the GI50 [14] was 0.634 µM (active) and the GI50 [15] was 8.75 µM (inactive). The GI50 [16] was 0.687 µM (active), the GI50 [17] was 0.504 µM (active) and the GI50 [18] was 1.87 µM (inactive).

In the case of `CC(=O)N1NC(c2ccccc2)=NC(=O)C1c1cc(C)c(O)c(C)c1` (stereo not drawn), the GI50 [1] is reported as 36.2 µM (inactive), the GI50 [2] is reported as 36.3 µM (inactive) and the GI50 [3] is reported as 52.7 µM (inactive). The GI50 [4] was 19.8 µM (inactive), the GI50 [5] was 23.9 µM (inactive) and the GI50 [6] was 22.4 µM (inactive). The GI50 [7] was 26.9 µM (inactive), the GI50 [8] was 19.9 µM (inactive) and the GI50 [9] was 54.6 µM (inactive). The GI50 [10] was 40 µM, the GI50 [11] was 24 µM (inactive) and the GI50 [12] was 28.1 µM (inactive). The GI50 [13] was 20.4 µM (inactive), the GI50 [14] was 21.9 µM (inactive) and the GI50 [15] was 17.8 µM (inactive). The GI50 [16] was 71.9 µM (inactive), the GI50 [17] was 21.2 µM (inactive) and the GI50 [18] was 72.4 µM (inactive).

With `COC(=O)/C=C1\C(=O)N(C(C)=O)c2ccccc21` the GI50 [1] was 22.1 µM (inactive), the GI50 [2] was 3.91 µM (inactive) and the GI50 [3] was 11.9 µM (inactive). The GI50 [4] was 2.04 µM (inactive), the GI50 [5] was 12.4 µM (inactive) and the GI50 [6] was 8.39 µM (inactive). For the same molecule, the GI50 [7] was 7.87 µM (inactive), the GI50 [8] was 12.5 µM (inactive) and the GI50 [9] was 12.3 µM (inactive). The GI50 [10] was 6.19 µM, the GI50 [11] was 14.6 µM (inactive) and the GI50 [12] was 16.9 µM (inactive). The GI50 [13] was 4.79 µM (inactive), the GI50 [14] was 13.9 µM (inactive) and the GI50 [15] was 3.35 µM (inactive). For the same molecule, the GI50 [16] was 13.2 µM (inactive), the GI50 [17] was 8.28 µM (inactive) and the GI50 [18] was 5.28 µM (inactive).

With `CCN(c1cccc(NC(=S)Nc2ccccc2N(CC)c2cc(-c3ccccc3)no2)c1)c1cc(-c2ccccc2)no1` the GI50 [1] was > 100 µM (inactive), the GI50 [2] was > 100 µM (inactive) and the GI50 [3] was > 100 µM (inactive). The GI50 [4] was > 100 µM (inactive), the GI50 [5] was > 100 µM (inactive) and the GI50 [6] was > 100 µM (inactive). For the same molecule, the GI50 [7] was > 100 µM (inactive), the GI50 [8] was > 100 µM (inactive) and the GI50 [9] was > 100 µM (inactive). The GI50 [10] was greater than 100 µM, the GI50 [11] was > 100 µM (inactive) and the GI50 [12] was > 100 µM (inactive). For the same molecule, the GI50 [13] was > 100 µM (inactive), the GI50 [14] was > 100 µM (inactive) and the GI50 [15] was > 100 µM (inactive). For the same molecule, the GI50 [16] was > 100 µM (inactive), the GI50 [17] was > 100 µM (inactive) and the GI50 [18] was > 100 µM (inactive).

For `O=[N+]([O-])c1cccc2nc3ccccc3c(NCCCCNc3c4ccccc4nc4cccc([N+](=O)[O-])c34)c12`, the GI50 [1] was 0.164 µM (active), the GI50 [2] was 0.0621 µM (active) and the GI50 [3] was 0.0301 µM (active). The GI50 [4] was 0.0233 µM (active), the GI50 [5] was 0.144 µM (active) and the GI50 [6] was 0.0491 µM (active). For the same molecule, the GI50 [7] was 0.118 µM (active), the GI50 [8] was 0.0859 µM (active) and the GI50 [9] was 0.164 µM (active). The GI50 [10] was 0.0204 µM, the GI50 [11] was 0.0225 µM (active) and the GI50 [12] was 0.141 µM (active). The GI50 [13] was 0.0244 µM (active), the GI50 [14] was 0.248 µM (active) and the GI50 [15] was 0.0214 µM (active). For the same molecule, the GI50 [16] was 0.0389 µM (active), the GI50 [17] was 0.0143 µM (active) and the GI50 [18] was < 0.01 µM (active).

With `CC(C)C/C=C/C1=NN(c2cccc(S(=O)(=O)O)c2)C2(C1)SCC(=O)N2c1nc2ccccc2s1` (stereo not drawn) the GI50 [1] was > 100 µM (inactive), the GI50 [2] was 26.8 µM (inactive) and the GI50 [3] was 21.6 µM (inactive). For the same molecule, the GI50 [4] was > 100 µM (inactive), the GI50 [5] was 29.2 µM (inactive) and the GI50 [6] was 5.43 µM (inactive). The GI50 [7] was 36.8 µM (inactive), the GI50 [8] was 97.5 µM (inactive) and the GI50 [9] was > 100 µM (inactive). For the same molecule, the GI50 [10] was 91.6 µM, the GI50 [11] was 99.5 µM (inactive) and the GI50 [12] was 35.2 µM (inactive). For the same molecule, the GI50 [13] was 61.4 µM (inactive), the GI50 [14] was 71.6 µM (inactive) and the GI50 [15] was 19.8 µM (inactive). The GI50 [16] was > 100 µM (inactive), the GI50 [17] was 67.8 µM (inactive) and the GI50 [18] was > 100 µM (inactive).

For `O=C1CCSC(=S)N1c1ccc(Br)c(Cl)c1`, the GI50 [1] was 43.9 µM (inactive), the GI50 [2] was 22 µM (inactive) and the GI50 [3] was 33.7 µM (inactive). For the same molecule, the GI50 [4] was 25.4 µM (inactive), the GI50 [5] was 27.3 µM (inactive) and the GI50 [6] was 14.9 µM (inactive). The GI50 [7] was 24.8 µM (inactive), the GI50 [8] was 25.5 µM (inactive) and the GI50 [9] was 17.7 µM (inactive). For the same molecule, the GI50 [10] was 20.4 µM, the GI50 [11] was 53.2 µM (inactive) and the GI50 [12] was 28.4 µM (inactive). For the same molecule, the GI50 [13] was 33 µM (inactive), the GI50 [14] was 42.9 µM (inactive) and the GI50 [15] was 21 µM (inactive). For the same molecule, the GI50 [16] was 58.1 µM (inactive), the GI50 [17] was 36.5 µM (inactive) and the GI50 [18] was 16.1 µM (inactive).

`O=C1C(NS(=O)(=O)c2ccccc2)=C(n2ccnc2)C(=O)c2ccccc21` was tested, and the GI50 [1] was > 100 µM (inactive), the GI50 [2] was > 100 µM (inactive) and the GI50 [3] was > 100 µM (inactive). For the same molecule, the GI50 [4] was > 100 µM (inactive), the GI50 [5] was > 100 µM (inactive) and the GI50 [6] was > 100 µM (inactive). For the same molecule, the GI50 [7] was > 100 µM (inactive), the GI50 [8] was 4.44 µM (inactive) and the GI50 [9] was > 100 µM (inactive). The GI50 [10] was greater than 100 µM, the GI50 [11] was > 100 µM (inactive) and the GI50 [12] was > 100 µM (inactive). The GI50 [13] was > 100 µM (inactive), the GI50 [14] was > 100 µM (inactive) and the GI50 [15] was > 100 µM (inactive). The GI50 [16] was > 100 µM (inactive), the GI50 [17] was > 100 µM (inactive) and the GI50 [18] was > 100 µM (inactive).

With `CC(C)C(C=O)C(O)(C(F)(F)F)C(F)(F)F` (stereo not drawn) the GI50 [1] was > 100 µM (inactive), the GI50 [2] was > 100 µM (inactive) and the GI50 [3] was > 100 µM (inactive). The GI50 [4] was > 100 µM (inactive), the GI50 [5] was > 100 µM (inactive) and the GI50 [6] was > 100 µM (inactive). The GI50 [7] was > 10 µM (inactive), the GI50 [8] was 11.3 µM (inactive) and the GI50 [9] was > 100 µM (inactive). The GI50 [10] was greater than 100 µM, the GI50 [11] was > 100 µM (inactive) and the GI50 [12] was > 100 µM (inactive). For the same molecule, the GI50 [13] was > 100 µM (inactive), the GI50 [14] was > 100 µM (inactive) and the GI50 [15] was > 100 µM (inactive). The GI50 [16] was > 100 µM (inactive), the GI50 [17] was > 100 µM (inactive) and the GI50 [18] was > 100 µM (inactive).

For `CCCCCCCCCCCCOP(=O)(O)OP(=O)(O)OCC1OC(n2cc(C)c(=O)[nH]c2=O)CC1O` (stereo not drawn), the GI50 [1] was > 100 µM (inactive), the GI50 [2] was > 100 µM (inactive) and the GI50 [3] was > 100 µM (inactive). For the same molecule, the GI50 [4] was > 100 µM (inactive), the GI50 [5] was > 100 µM (inactive) and the GI50 [6] was > 100 µM (inactive). The GI50 [7] was > 100 µM (inactive), the GI50 [8] was > 100 µM (inactive) and the GI50 [9] was > 100 µM (inactive). The GI50 [10] was greater than 100 µM, the GI50 [11] was > 100 µM (inactive) and the GI50 [12] was > 100 µM (inactive). For the same molecule, the GI50 [13] was > 100 µM (inactive), the GI50 [14] was > 100 µM (inactive) and the GI50 [15] was > 100 µM (inactive). For the same molecule, the GI50 [16] was > 100 µM (inactive), the GI50 [17] was > 100 µM (inactive) and the GI50 [18] was > 100 µM (inactive).

In the case of `Cn1c2c(c3ccccc3c1=O)C(=O)c1ccccc1-2`, the GI50 [1] is reported as > 100 µM (inactive), the GI50 [2] is reported as 27.2 µM (inactive) and the GI50 [3] is reported as > 100 µM (inactive). The GI50 [4] was > 100 µM (inactive), the GI50 [5] was 63.8 µM (inactive) and the GI50 [6] was > 100 µM (inactive). For the same molecule, the GI50 [7] was > 100 µM (inactive), the GI50 [8] was 77.6 µM (inactive) and the GI50 [9] was > 100 µM (inactive). The GI50 [10] was 9.79 µM, the GI50 [11] was 30.8 µM (inactive) and the GI50 [12] was > 100 µM (inactive). For the same molecule, the GI50 [13] was 19.7 µM (inactive), the GI50 [14] was 51.2 µM (inactive) and the GI50 [15] was 11.7 µM (inactive). The GI50 [16] was > 100 µM (inactive), the GI50 [17] was 15.5 µM (inactive) and the GI50 [18] was 97.5 µM (inactive).

From ChEMBL document CHEMBL1201862, “PubChem BioAssay data set” (2004)
